According to the supplement of paper PMC13380429:

How the values were obtained:
Calu-3 [1] = experiment: relative viability EC50 (midpoint between 100% and the lowest measured viability); higher = less toxic; details: 72 h
[2] = system: A549-ACE2 infected with SARS-CoV-2; experiment: SARS-CoV-2 infection rate relative to DMSO; higher = more infection; details: 24 h
Calu-3 [3] = experiment: cell viability relative to DMSO; higher = less toxic; details: 72 h
Caco-2 [4] = experiment: as above; details: 72 h
Vero E6 [5] = experiment: as above; details: 72 h
HepG2 [6] = experiment: as above; details: 72 h
U2OS [7] = experiment: as above; details: 72 h
A549-ACE2 [8] = experiment: phospholipidosis EC50; higher = less potent phospholipidosis inducer
A549-ACE2 [9] = experiment: drug-induced phospholipidosis relative to tamoxifen; higher = more phospholipidosis
[10] = system: A549-ACE2 infected with SARS-CoV-2; experiment: morphology score (similarity to uninfected cells); higher = more like uninfected cells; details: 24 h
Calu-3 [11] = experiment: drug sensitivity score (DSS) for viability; higher = more toxic; extreme values may be limits of the assay; details: 72 h
Caco-2 [12] = experiment: as above; details: 72 h
Vero E6 [13] = experiment: as above; details: 72 h
HepG2 [14] = experiment: as above; details: 72 h
U2OS [15] = experiment: as above; details: 72 h
[16] = system: A549-ACE2 infected with SARS-CoV-2; experiment: cell count relative to DMSO; higher = less toxic; details: 24 h
Caco-2 [17] = experiment: relative viability EC50 (midpoint between 100% and the lowest measured viability); higher = less toxic; details: 72 h
HepG2 [18] = experiment: as above; details: 72 h
Vero E6 [19] = experiment: as above; details: 72 h
U2OS [20] = experiment: as above; details: 72 h

NC1(c2ccc(-c3nc4ccn5c(=O)[nH]nc5c4cc3-c3ccccc3)cc2)CCC1 [MK-2206]
Details	drug sensitivity score	relative viability EC50 [µM]
Caco-2 [12]	5.4	–
Calu-3 [1]	–	0.49
Calu-3 [11]	8.7	–
HepG2 [14]	7.6	–
U2OS [15]	2.7	–
Vero E6 [13]	3.9	–

Details	SARS-CoV-2 infection rate [%]	cell count [%]	cell viability [%]	morphology score	phospholipidosis EC50 [µM]
A549-ACE2 [8], 24 h	–	–	–	–	3.24
A549-ACE2 [8], 48 h	–	–	–	–	3.44
Caco-2 [4], 1 nM	–	–	102	–	–
Caco-2 [4], 10 nM	–	–	95.3	–	–
Caco-2 [4], 100 nM	–	–	87.1	–	–
Caco-2 [4], 1000 nM	–	–	75	–	–
Caco-2 [4], 10000 nM	–	–	66.2	–	–
Calu-3 [3], 1 nM	–	–	104	–	–
Calu-3 [3], 10 nM	–	–	100	–	–
Calu-3 [3], 100 nM	–	–	84.1	–	–
Calu-3 [3], 1000 nM	–	–	63	–	–
Calu-3 [3], 10000 nM	–	–	38	–	–
HepG2 [6], 1 nM	–	–	95.6	–	–
HepG2 [6], 10 nM	–	–	93.7	–	–
HepG2 [6], 100 nM	–	–	84.8	–	–
HepG2 [6], 1000 nM	–	–	66.1	–	–
HepG2 [6], 10000 nM	–	–	59	–	–
U2OS [7], 1 nM	–	–	104	–	–
U2OS [7], 10 nM	–	–	103	–	–
U2OS [7], 100 nM	–	–	96.9	–	–
U2OS [7], 1000 nM	–	–	89	–	–
U2OS [7], 10000 nM	–	–	67.8	–	–
Vero E6 [5], 1 nM	–	–	94	–	–
Vero E6 [5], 10 nM	–	–	94.7	–	–
Vero E6 [5], 100 nM	–	–	93.4	–	–
Vero E6 [5], 1000 nM	–	–	81	–	–
Vero E6 [5], 10000 nM	–	–	63.2	–	–
[2], 0.1 µM	105	–	–	–	–
[2], 0.3 µM	101	–	–	–	–
[2], 1 µM	97	–	–	–	–
[2], 3 µM	29	–	–	–	–
[10], 0.1 µM	–	–	–	0.19	–
[10], 0.3 µM	–	–	–	0.27	–
[10], 1 µM	–	–	–	0.31	–
[10], 3 µM	–	–	–	0.79	–
[16], 0.1 µM	–	100	–	–	–
[16], 0.3 µM	–	99	–	–	–
[16], 1 µM	–	85	–	–	–
[16], 3 µM	–	103	–	–	–

drug-induced phospholipidosis [%], A549-ACE2 [9]
Details	0.3 µM	0.833333 µM	3.33333 µM	6.66667 µM	10 µM	30 µM
24 h	3.85	16.3	76	128	149	82.1
48 h	2.41	16.9	89	158	169	–
72 h	0.889	14.8	66.8	–	–	–

NC1(Cc2ccc(Cl)cc2)CCN(c2ncnc3[nH]ccc23)CC1
Details	drug sensitivity score	relative viability EC50 [µM]
Caco-2 [12]	0.7	–
Caco-2 [17]	–	> 10
Calu-3 [1]	–	> 10
Calu-3 [11]	0.5	–
HepG2 [14]	5.6	–
HepG2 [18]	–	2.18
U2OS [15]	3.3	–
Vero E6 [13]	3	–

Details	SARS-CoV-2 infection rate [%]	cell count [%]	cell viability [%]	morphology score	phospholipidosis EC50 [µM]
A549-ACE2 [8], 24 h	–	–	–	–	5.25
A549-ACE2 [8], 48 h	–	–	–	–	7.16
A549-ACE2 [8], 72 h	–	–	–	–	8.44
Caco-2 [4], 1 nM	–	–	93.7	–	–
Caco-2 [4], 10 nM	–	–	109	–	–
Caco-2 [4], 100 nM	–	–	95.4	–	–
Caco-2 [4], 1000 nM	–	–	98.2	–	–
Caco-2 [4], 10000 nM	–	–	81.7	–	–
Calu-3 [3], 1 nM	–	–	95.4	–	–
Calu-3 [3], 10 nM	–	–	99.9	–	–
Calu-3 [3], 100 nM	–	–	100	–	–
Calu-3 [3], 1000 nM	–	–	105	–	–
Calu-3 [3], 10000 nM	–	–	77.5	–	–
HepG2 [6], 1 nM	–	–	100	–	–
HepG2 [6], 10 nM	–	–	102	–	–
HepG2 [6], 100 nM	–	–	94.5	–	–
HepG2 [6], 1000 nM	–	–	91.1	–	–
HepG2 [6], 10000 nM	–	–	26.3	–	–
U2OS [7], 1 nM	–	–	96.9	–	–
U2OS [7], 10 nM	–	–	101	–	–
U2OS [7], 100 nM	–	–	93	–	–
U2OS [7], 1000 nM	–	–	95	–	–
U2OS [7], 10000 nM	–	–	52.6	–	–
Vero E6 [5], 1 nM	–	–	97.6	–	–
Vero E6 [5], 10 nM	–	–	100	–	–
Vero E6 [5], 100 nM	–	–	96.8	–	–
Vero E6 [5], 1000 nM	–	–	88.5	–	–
Vero E6 [5], 10000 nM	–	–	65.3	–	–
[2], 0.1 µM	99	–	–	–	–
[2], 0.3 µM	106	–	–	–	–
[2], 1 µM	104	–	–	–	–
[2], 3 µM	85	–	–	–	–
[10], 0.1 µM	–	–	–	0.13	–
[10], 0.3 µM	–	–	–	-0.05	–
[10], 1 µM	–	–	–	0.15	–
[10], 3 µM	–	–	–	0.48	–
[16], 0.1 µM	–	104	–	–	–
[16], 0.3 µM	–	105	–	–	–
[16], 1 µM	–	104	–	–	–
[16], 3 µM	–	105	–	–	–

drug-induced phospholipidosis [%], A549-ACE2 [9]
Details	0.3 µM	0.833333 µM	3.33333 µM	6.66667 µM	10 µM	30 µM
24 h	2.53	6.69	24.4	64.2	86.2	95.1
48 h	0.01	-2.52	9.67	37.5	65.9	86.8
72 h	-2.31	-5.85	5.48	20.6	47.9	73.3

CN(C(=O)Cc1ccc(Cl)c(Cl)c1)[C@H](CN1CCCC1)c1ccccc1
Details	drug sensitivity score	relative viability EC50 [µM]
Caco-2 [12]	0.7	–
Caco-2 [17]	–	> 10
Calu-3 [1]	–	2.85
Calu-3 [11]	4.3	–
HepG2 [14]	0.3	–
HepG2 [18]	–	> 10
U2OS [15]	0	–
U2OS [20]	–	> 10
Vero E6 [13]	0	–
Vero E6 [19]	–	> 10

Details	SARS-CoV-2 infection rate [%]	cell count [%]	cell viability [%]	morphology score	phospholipidosis EC50 [µM]
A549-ACE2 [8], 24 h	–	–	–	–	3.63
A549-ACE2 [8], 48 h	–	–	–	–	5.18
A549-ACE2 [8], 72 h	–	–	–	–	8.35
Caco-2 [4], 1 nM	–	–	96.7	–	–
Caco-2 [4], 10 nM	–	–	103	–	–
Caco-2 [4], 100 nM	–	–	103	–	–
Caco-2 [4], 1000 nM	–	–	103	–	–
Caco-2 [4], 10000 nM	–	–	76	–	–
Calu-3 [3], 1 nM	–	–	96.1	–	–
Calu-3 [3], 10 nM	–	–	100	–	–
Calu-3 [3], 100 nM	–	–	90.9	–	–
Calu-3 [3], 1000 nM	–	–	97.1	–	–
Calu-3 [3], 10000 nM	–	–	28.9	–	–
HepG2 [6], 1 nM	–	–	98.1	–	–
HepG2 [6], 10 nM	–	–	105	–	–
HepG2 [6], 100 nM	–	–	106	–	–
HepG2 [6], 1000 nM	–	–	99.4	–	–
HepG2 [6], 10000 nM	–	–	85.3	–	–
U2OS [7], 1 nM	–	–	96.9	–	–
U2OS [7], 10 nM	–	–	99.7	–	–
U2OS [7], 100 nM	–	–	101	–	–
U2OS [7], 1000 nM	–	–	106	–	–
U2OS [7], 10000 nM	–	–	89.9	–	–
Vero E6 [5], 1 nM	–	–	104	–	–
Vero E6 [5], 10 nM	–	–	101	–	–
Vero E6 [5], 100 nM	–	–	107	–	–
Vero E6 [5], 1000 nM	–	–	102	–	–
Vero E6 [5], 10000 nM	–	–	88.1	–	–
[2], 0.3 µM	97	–	–	–	–
[2], 3 µM	21	–	–	–	–
[2], 10 µM	17	–	–	–	–
[2], 30 µM	36	–	–	–	–
[10], 0.3 µM	–	–	–	-0.06	–
[10], 3 µM	–	–	–	0.89	–
[10], 10 µM	–	–	–	0.84	–
[10], 30 µM	–	–	–	0.1	–
[16], 0.3 µM	–	96	–	–	–
[16], 3 µM	–	118	–	–	–
[16], 10 µM	–	121	–	–	–
[16], 30 µM	–	92	–	–	–

drug-induced phospholipidosis [%], A549-ACE2 [9]
Details	0.3 µM	0.833333 µM	3.33333 µM	6.66667 µM	10 µM	30 µM
24 h	0.7	4.92	51.2	90.6	95.8	112
48 h	4.43	3.22	36.7	77.7	97.8	–
72 h	3.91	2.85	31.5	65.6	90.5	–

CCCCc1oc2ccc(NS(C)(=O)=O)cc2c1C(=O)c1ccc(OCCCN(CCCC)CCCC)cc1 [dronedarone]
Details	drug sensitivity score	relative viability EC50 [µM]
Caco-2 [12]	2.8	–
Caco-2 [17]	–	3.38
Calu-3 [1]	–	3.28
Calu-3 [11]	5.1	–
HepG2 [14]	4.6	–
HepG2 [18]	–	3.13
U2OS [15]	4.1	–
U2OS [20]	–	3.29
Vero E6 [13]	1.8	–

Details	SARS-CoV-2 infection rate [%]	cell count [%]	cell viability [%]	morphology score	phospholipidosis EC50 [µM]
A549-ACE2 [8], 24 h	–	–	–	–	0.926
A549-ACE2 [8], 48 h	–	–	–	–	2.18
A549-ACE2 [8], 72 h	–	–	–	–	2.34
Caco-2 [4], 1 nM	–	–	101	–	–
Caco-2 [4], 10 nM	–	–	102	–	–
Caco-2 [4], 100 nM	–	–	94.7	–	–
Caco-2 [4], 1000 nM	–	–	102	–	–
Caco-2 [4], 10000 nM	–	–	44.6	–	–
Calu-3 [3], 1 nM	–	–	102	–	–
Calu-3 [3], 10 nM	–	–	108	–	–
Calu-3 [3], 100 nM	–	–	108	–	–
Calu-3 [3], 1000 nM	–	–	102	–	–
Calu-3 [3], 10000 nM	–	–	5.7	–	–
HepG2 [6], 1 nM	–	–	110	–	–
HepG2 [6], 10 nM	–	–	101	–	–
HepG2 [6], 100 nM	–	–	110	–	–
HepG2 [6], 1000 nM	–	–	99.6	–	–
HepG2 [6], 10000 nM	–	–	17.6	–	–
U2OS [7], 1 nM	–	–	100	–	–
U2OS [7], 10 nM	–	–	107	–	–
U2OS [7], 100 nM	–	–	98.1	–	–
U2OS [7], 1000 nM	–	–	102	–	–
U2OS [7], 10000 nM	–	–	23	–	–
Vero E6 [5], 1 nM	–	–	108	–	–
Vero E6 [5], 10 nM	–	–	105	–	–
Vero E6 [5], 100 nM	–	–	107	–	–
Vero E6 [5], 1000 nM	–	–	100	–	–
Vero E6 [5], 10000 nM	–	–	61.9	–	–
[2], 0.1 µM	95	–	–	–	–
[2], 0.3 µM	94	–	–	–	–
[2], 1 µM	65	–	–	–	–
[2], 3 µM	13	–	–	–	–
[10], 0.1 µM	–	–	–	0.12	–
[10], 0.3 µM	–	–	–	0.11	–
[10], 1 µM	–	–	–	0.64	–
[10], 3 µM	–	–	–	0.81	–
[16], 0.1 µM	–	103	–	–	–
[16], 0.3 µM	–	100	–	–	–
[16], 1 µM	–	111	–	–	–
[16], 3 µM	–	112	–	–	–

drug-induced phospholipidosis [%], A549-ACE2 [9]
Details	0.3 µM	0.833333 µM	3.33333 µM	6.66667 µM	10 µM	30 µM
24 h	5.9	23.1	79.1	94.6	47.9	35
48 h	9.08	19	96	120	–	–
72 h	7.98	17	94.1	122	–	–
